This note sets out measurements from US11697636B2, “Substituted benzamides” (Hoffmann-La Roche Inc., priority 2009, dated 2023).

Where a name gives a salt, the structure may show the parent alone.

The test addresses mouse TAAR1 (Mus musculus (Mouse), UniProt Q923Y8). Briefly: Radioligand binding assay on mouse TAAR1. The following applies: mouse TAAR1, HEK-293 membranes; first value of mouse/rat pair. As to the method:
For the construction of expression plasmids the coding sequences of human, rat and mouse TAAR 1 were amplified from genomic DNA essentially as described by Lindemann et al.. […] PCR products were subcloned into the pIRESneo2 vector (BD Clontech, Palo Alto, Calif.), and expression vectors were sequence verified before introduction in cell lines.
HEK293 cells (ATCC #CRL-1573) were cultured essentially as described by Lindemann et al. (2005). […] After a culture period of about 10 d clones were isolated, expanded and tested for responsiveness to trace amines (all compounds purchased from Sigma) with the cAMP Biotrak Enzyme immunoassay (EIA) System (Amersham) following the non-acetylation EIA procedure provided by the manufacturer.
Radioligand Binding Assay on Mouse TAAR1
Membrane Preparation and Radioligand Binding.
HEK-293 cells stably expressing mouse TAAR1 were maintained at 37° C. and 5% CO2 in DMEM high glucose medium, containing fetal calf serum (10%, heat inactivated for 30 min at 56° C.), penicillin/streptomycin (1%), and 375 μg/ml geneticin (Gibco). Cells were released from culture flasks using trypsin/EDTA, harvested, washed twice with ice-cold PBS (without Ca^2+ and Mg^2+), pelleted at 1′000 rpm for 5 min at 4° C., frozen and stored at −80° C. […] With each new membrane batch the dissociation constant (Kd) was determined via a saturation curve. […]

Chain of mouse TAAR1 (Q923Y8 whole entry): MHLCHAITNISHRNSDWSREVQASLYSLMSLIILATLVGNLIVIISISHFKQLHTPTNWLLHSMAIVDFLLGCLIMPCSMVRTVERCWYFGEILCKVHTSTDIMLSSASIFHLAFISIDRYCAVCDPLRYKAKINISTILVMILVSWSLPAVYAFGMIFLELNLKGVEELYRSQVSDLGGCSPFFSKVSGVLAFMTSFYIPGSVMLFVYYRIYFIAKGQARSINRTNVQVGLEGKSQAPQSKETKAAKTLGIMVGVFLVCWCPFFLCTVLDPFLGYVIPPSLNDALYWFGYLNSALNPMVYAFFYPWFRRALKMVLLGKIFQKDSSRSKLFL

Broadly, the Ki is a measure of affinity in units of concentration, obtained from inhibition or displacement. Turning to `O=C(Nc1ccccc1)Nc1ccc(C2CCNC2)cc1` (racemic) [Example 6, (RS)-1-Phenyl-3-(4-pyrrolidin-3-yl-phenyl)-urea hydrochloride], the Ki is 32 µM.
